Experimental data as given in patent US4064137A (priority 1976, dated 1977).
Several values for one entry are separate records, joined by “and”; a condition that tells them apart may be missing. Identical values can stand only once. Like-named read-outs stand apart in the source and are kept apart here.

Tests used:
Vaccinia virus = type: in vivo, mouse; details: for Number of pox / Inhibition percent: intraperitoneal; for Number of pox: 8th day after inoculation; for Inhibition percent: 8th day, vs control mouse
spleen cells of a mouse = type: cell-based

Compound `COC(=O)C1N2C(=O)C3(CC(C#N)=C(c4ccccc4)N3)C2SC1(C)C` (stereo not drawn) [3'-Cyano-2'-phenyl-2'-pyrroline-5'-spiro-6-penicillanic acid methyl ester] has a Number of pox (Vaccinia virus; 0.49 mg/kg × 4 times) of 16.0, an Inhibition percent (Vaccinia virus; 0.49 mg/kg × 4 times) of 34.7% and a Number of pox (Vaccinia virus; 1.95 mg/kg × 4 times) of 9.1. It also gave an Inhibition percent (Vaccinia virus; 1.95 mg/kg × 4 times) of 62.9%, a Number of pox (Vaccinia virus; 7.8 mg/kg × 4 times) of 11.2 and an Inhibition percent (Vaccinia virus; 7.8 mg/kg × 4 times) of 54.3%. The “interferon inducibility (in words)” value (Vaccinia virus; conclusion after in vivo test) was “excellent interferon inducibility”, the Interferon titre (spleen cells of a mouse) was 320 unit and 160 unit and the “units of interferon induced” value (spleen cells of a mouse) was 320 units.
